We go through 53 compounds from ChEMBL document CHEMBL1697723, “A predictive ligand-based Bayesian model for human drug-induced liver injury” (Drug Metab Dispos, 2010).

The first data set relates to Hepatotoxicity. The data set is described as follows: Human drug-induced liver injury (DILI) modelling dataset from Ekins et al.
Details: not given
Regarding `CN(C)[C@@H]1C(O)=C(C(N)=O)C(=O)[C@@]2(O)C(O)=C3C(=O)c4c(O)cccc4[C@@](C)(O)[C@H]3C[C@@H]12` [TETRACYCLINE], the Hepatotoxicity result is reported as “DILI positive (training set)”.

For the compound `Cn1c(=O)c2[nH]cnc2n(C)c1=O.O` [THEOPHYLLINE], the Hepatotoxicity entry was “DILI negative (test set)”. Take `CC(=N)S` [THIOACETAMIDE]: the Hepatotoxicity result is “DILI positive (training set)”. On to `CN1c2ccccc2C(NCCCCCCC(=O)O)c2ccc(Cl)cc2S1(=O)=O` (stereo not drawn) [TIANEPTINE], for which the Hepatotoxicity result was “DILI positive (training set)”. In the case of `CC(C)(C)NC[C@H](O)COc1nsnc1N1CCOCC1.O=C(O)/C=C\C(=O)O` [TIMOLOL MALEATE], the Hepatotoxicity entry is on record as “DILI positive (training set)”. On the same count and under the same terms, for `NC[C@H]1O[C@H](O[C@H]2[C@H](O)[C@@H](O[C@H]3O[C@H](CO)[C@@H](O)[C@H](N)[C@H]3O)[C@H](N)C[C@@H]2N)[C@H](N)C[C@@H]1O` [TOBRAMYCIN] the value was “DILI positive (test set)”. Same read-out and setting: for `Cc1ccc(S(=O)(=O)NC(=O)NN2CCCCCC2)cc1` [TOLAZAMIDE] the value was “DILI positive (test set)”; for `Cc1ccc(C(=O)c2ccc(CC(=O)O)n2C)cc1` [TOLMETIN], “DILI positive (training set)”.

In the case of `COc1ccc2c(C(=S)N(C)CC(=O)O)cccc2c1C(F)(F)F` [TOLRESTAT], the Hepatotoxicity result was “DILI positive (test set)”. On the same count and under the same terms, in the case of `CC1(C)O[C@@H]2[C@@H](CO[C@@]3(COS(N)(=O)=O)OC(C)(C)O[C@@H]23)O1` [TOPIRAMATE] it was “DILI negative (test set)”; in that of `Cl.O=c1n(CCCN2CCN(c3cccc(Cl)c3)CC2)nc2ccccn12` [TRAZODONE HYDROCHLORIDE], “DILI positive (training set)”; in that of `CC1=C(/C=C/C(C)=C/C=C/C(C)=C/C(=O)O)C(C)(C)CCC1` [TRETINOIN], “DILI positive (training set)”. The same measure, in the same setting: for `ClC=C(Cl)Cl` [TRICHLOROETHYLENE] the value was “DILI positive (test set)”; for `CN1CCN(CCCN2c3ccccc3Sc3ccc(C(F)(F)F)cc32)CC1` [TRIFLUOPERAZINE], “DILI positive (training set)”; for `CN1C(=O)OC(C)(C)C1=O` [TRIMETHADIONE], “DILI positive (training set)”. Take `COc1cc(C(=O)NCc2ccc(OCCN(C)C)cc2)cc(OC)c1OC.Cl` [TRIMETHOBENZAMIDE HYDROCHLORIDE]: the Hepatotoxicity entry was “DILI positive (test set)”. The same measure, in the same setting: for `CN(C)CCN(Cc1ccccc1)c1ccccn1.Cl` [TRIPELENNAMINE HYDROCHLORIDE] the value was “DILI positive (test set)”; for `Cc1c(C)c2c(c(C)c1O)CCC(C)(COc1ccc(CC3SC(=O)NC3=O)cc1)O2` (stereo not drawn) [TROGLITAZONE], “DILI positive (test set)”; for `CO[C@H]1C[C@H](O[C@H]2[C@H](C)[C@@H](O[C@@H]3O[C@H](C)C[C@H](N(C)C)[C@H]3OC(C)=O)[C@@H](C)C[C@@]3(CO3)C(=O)[C@H](C)[C@@H](OC(C)=O)[C@@H](C)[C@@H](C)OC(=O)[C@@H]2C)O[C@@H](C)[C@@H]1OC(C)=O` [TROLEANDOMYCIN], “DILI positive (test set)”. For `N[C@@H]1[C@H]2CN(c3nc4c(cc3F)c(=O)c(C(=O)O)cn4-c3ccc(F)cc3F)C[C@@H]12` [TROVAFLOXACIN], the Hepatotoxicity result is on record as “DILI positive (training set)”. On the same count and under the same terms, for `C[C@H](CCC(=O)O)[C@H]1CC[C@H]2[C@@H]3[C@@H](O)C[C@@H]4C[C@H](O)CC[C@]4(C)[C@H]3CC[C@]12C` [URSODIOL] the value was “DILI negative (training set)”; for `CCCCC(=O)O` [VALERIC ACID], “DILI negative (test set)”.

Turning to `CN[C@H](CC(C)C)C(=O)N[C@H]1C(=O)N[C@@H](CC(N)=O)C(=O)N[C@H]2C(=O)N[C@H]3C(=O)N[C@H](C(=O)N[C@H](C(=O)O)c4cc(O)cc(O)c4-c4cc3ccc4O)[C@H](O)c3ccc(c(Cl)c3)Oc3cc2cc(c3O[C@@H]2O[C@H](CO)[C@@H](O)[C@H](O)[C@H]2O[C@H]2C[C@](C)(N)[C@H](O)[C@H](C)O2)Oc2ccc(cc2Cl)[C@H]1O` [VANCOMYCIN], the Hepatotoxicity entry is reported as “DILI positive (training set)”. Same read-out and setting: in the case of `Nc1ncnc2c1ncn2[C@@H]1O[C@H](CO)[C@@H](O)[C@@H]1O` [VIDARABINE] it was “DILI negative (training set)”; in that of `CC[C@]1(O)C[C@@H]2CN(CCc3c([nH]c4ccccc34)[C@@](C(=O)OC)(c3cc4c(cc3OC)N(C)[C@H]3[C@@](O)(C(=O)OC)[C@H](OC(C)=O)[C@]5(CC)C=CCN6CC[C@]43[C@@H]65)C2)C1.O=S(=O)(O)O` [VINBLASTINE SULFATE], “DILI negative (test set)”. Turning to `CC[C@]1(O)C[C@H]2CN(CCc3c([nH]c4ccccc34)[C@@](C(=O)OC)(c3cc4c(cc3OC)N(C=O)[C@H]3[C@@](O)(C(=O)OC)[C@H](OC(C)=O)[C@]5(CC)C=CCN6CC[C@]43[C@@H]65)C2)C1.O=S(=O)(O)O` [VINCRISTINE SULFATE], the Hepatotoxicity entry is given as “DILI positive (test set)”.

In the case of `CCCCCCCCCCCCCCCC(=O)OC/C=C(C)/C=C/C=C(C)/C=C/C1=C(C)CCCC1(C)C` [VITAMIN A PALMITATE], the Hepatotoxicity entry is reported as “DILI positive (test set)”. On the same count and under the same terms, in the case of `CC(=O)CC(c1ccccc1)c1c(O)c2ccccc2oc1=O` (stereo not drawn) [WARFARIN] it was “DILI negative (training set)”; in that of `CCOC(=O)CN[C@@H](C(=O)N1CC[C@H]1C(=O)NCc1ccc(/C(N)=N\O)cc1)C1CCCCC1` [XIMELAGATRAN], “DILI positive (test set)”; in that of `COc1cc(C(=O)NS(=O)(=O)c2ccccc2C)ccc1Cc1cn(C)c2ccc(NC(=O)OC3CCCC3)cc12` [ZAFIRLUKAST], “DILI positive (training set)”.

In the case of `Cc1cn([C@H]2C[C@H](N=[N+]=[N-])[C@@H](CO)O2)c(=O)[nH]c1=O` [ZIDOVUDINE], the Hepatotoxicity entry is listed as “DILI positive (training set)”. Same read-out and setting: for `CC(c1cc2ccccc2s1)N(O)C(N)=O` (stereo not drawn) [ZILEUTON] the value was “DILI positive (training set)”. On the same count and under the same terms, for `Cc1ccc(-c2nc3ccc(C)cn3c2CC(=O)N(C)C)cc1` [ZOLPIDEM] the value was “DILI negative (test set)”. Same read-out and setting: for `Cc1cc(CC(=O)O)n(C)c1C(=O)c1ccc(Cl)cc1` [ZOMEPIRAC] the value was “DILI negative (training set)”; for AURANOFIN, “DILI positive (test set)”; for AUROTHIOGLUCOSE, “DILI positive (test set)”. For AUROTHIOLAMATE, the Hepatotoxicity result is on record as “DILI positive (test set)”. The same measure, in the same setting: for BISMUTH SUBSALICYLATE the value was “DILI negative (test set)”; for CADMIUM DICHLORIDE, “DILI positive (training set)”. Same read-out and setting: in the case of CARBOPLATIN it was “DILI positive (test set)”; in that of CISPLATIN, “DILI positive (test set)”; in that of CYANOCOBALAMIN, “DILI negative (training set)”. GALLIUM NITRATE HYDRATE: the Hepatotoxicity entry is “DILI negative (training set)”. Still for that read-out and setting: in the case of LACTOSE, ANHYDROUS it was “DILI negative (test set)”; in that of POTASSIUM DICHROMATE, “DILI positive (training set)”.

The same data set, now with this note: Liver.
As for `Cc1ncc(C[n+]2csc(CCO)c2C)c(N)n1` [THIAMINE ION], the Hepatotoxicity entry is reported as “DILI negative (test set)”. Same read-out and setting: for `Clc1ccccc1CN1CCc2sccc2C1` [TICLOPIDINE] the value was “DILI positive (training set)”; for `Cc1ccc(C(=O)c2cc(O)c(O)c([N+](=O)[O-])c2)cc1` [TOLCAPONE], “DILI positive (test set)”. Same read-out and setting: in the case of `Cl.N[C@@H]1C[C@H]1c1ccccc1` [TRANYLCYPROMINE HYDROCHLORIDE] it was “DILI negative (training set)”; in that of `COc1cc(Cc2cnc(N)nc2N)cc(OC)c1OC` [TRIMETHOPRIM], “DILI positive (test set)”; in that of `NC(CO)(CO)CO` [TROMETHAMINE], “DILI negative (test set)”. For the compound `Oc1ncc(N(CCCl)CCCl)c(O)n1` [URACIL MUSTARD], the Hepatotoxicity result was “DILI positive (test set)”. The same measure, in the same setting: for `Nc1ccn([C@H]2CC[C@@H](CO)O2)c(=O)n1` [ZALCITABINE] the value was “DILI negative (training set)”.
